Results taken from paper PMC7817688, “Identification of 3-chymotrypsin like protease (3CLPro) inhibitors as potential anti-SARS-CoV-2 agents” (Communications Biology, 2021).
Values joined by “and” are separate entries in the source; they are usually repeats but may differ in a detail not shown here. Identical values can stand only once.

Target: SARS-CoV-2 3CLpro enzyme (Severe acute respiratory syndrome coronavirus 2, UniProt P0DTD1)
Assay: biochemical
Details: for percent enzymatic activity, individual values / percent enzymatic activity, AVG / inhibition at 50 µM: 50 µM drug; for percent enzymatic activity, individual values / percent enzymatic activity, AVG: DMSO treated control = 100%, data of Figs. 2-4; for percent enzymatic activity, AVG: mean of 3 values; for inhibitory effect towards 3CLpro enzymatic activity (in words): in vitro enzymatic assay at the tested doses
[1] = dose-dependent study, 0.048828 uM, individual values
[2] = dose-dependent study, 0.097656 uM, individual values
[3] = dose-dependent study, 0.097656 uM, individual values, read-out: % activity
[4] = dose-dependent study, 0.195313 uM, individual values
[5] = dose-dependent study, 0.390625 uM, individual values
[6] = dose-dependent study, 0.390625 uM, individual values, read-out: % activity
[7] = dose-dependent study, 0.78125 uM, individual values
[8] = dose-dependent study, 0.78125 uM, individual values, read-out: % activity
[9] = dose-dependent study, 1.5625 uM, individual values
[10] = dose-dependent study, 3.125 uM, individual values
[11] = dose-dependent study, 3.125 uM, individual values, read-out: % activity
[12] = dose-dependent study, 12.5 uM, individual values
[13] = dose-dependent study, 12.5 uM, individual values, read-out: % activity
[14] = dose-dependent study, 25 uM, individual values
[15] = dose-dependent study, 50 uM, individual values
[16] = dose-dependent study, 100 uM, individual values
[17] = read-out: inhibition of 3CLpro enzymatic activity

Structure (SMILES): CC[C@@H]([C@H](C)O)n1ncn(-c2ccc(N3CCN(c4ccc(OC[C@@H]5CO[C@@](Cn6cncn6)(c6ccc(F)cc6F)C5)cc4)CC3)cc2)c1=O [Posaconazole]
- percent enzymatic activity, individual values: 84.6282% and 81.1692%
- percent enzymatic activity, AVG: 83.4752%

Structure (SMILES): COc1cc2c(cc1Cc1cccc(Cl)c1F)c(=O)c(C(=O)O)cn2[C@H](CO)C(C)C [Elvitegravir]
- percent enzymatic activity, individual values: 78.3509% and 80.4458% and 91.3395%
- percent enzymatic activity, AVG: 83.3787%

Structure (SMILES): CC(C)(C)NC(=O)N[C@H](C(=O)N1C[C@H]2[C@@H]([C@H]1C(=O)NC(CC1CCC1)C(=O)C(N)=O)C2(C)C)C(C)(C)C (some centres unmarked) [Boceprevir]
- percent enzymatic activity, individual values: 54.8875% and 56.5635% and 59.0774%
- percent enzymatic activity, AVG: 56.8428%
- % activity [1]: 71.4825%
- activity at 0.048828 µM [1]: 72.9%
- % activity [2]: 78.9417% and 76.1445%
- activity at 0.097656 µM [3]: 75.2%
- % activity [4]: 74.7459%
- activity at 0.195313 µM (dose-dependent study, 0.195313 uM, individual values, read-out: % activity): 73.3%
- % activity [5]: 72.4149%
- activity at 0.390625 µM [6]: 77.1%
- % activity [7]: 70.5501% and 71.9487%
- activity at 0.78125 µM [8]: 71%
- % activity [9]: 78.9417% and 72.4149%
- activity at 1.5625 µM (dose-dependent study, 1.5625 uM, individual values, read-out: % activity): 74.3%
- % activity [10]: 84.5361%
- activity at 3.125 µM [11]: 73.3%
- activity at 6.25 µM (dose-dependent study, 6.25 uM, individual values, read-out: % activity): 73.8%
- % activity [12]: 70.0839% and 64.9557%
- activity at 12.5 µM [13]: 61.2%
- % activity [14]: 57.4965% and 56.0979%
- activity at 25 µM [14]: 51.9%
- % activity [15]: 41.6457% and 41.1795%
- activity at 50 µM [15]: 37.4%
- % activity [16]: 29.5245% and 31.8555%
- activity at 100 µM (dose-dependent study, 100 uM, individual values, read-out: % activity): 26.7%
- inhibitory effect towards 3CLpro enzymatic activity (in words): partial inhibitory effect
- inhibition at 50 µM [17]: 45%

Structure (SMILES): CCC(C)n1ncn(-c2ccc(N3CCN(c4ccc(OCC5COC(Cn6cncn6)(c6ccc(Cl)cc6Cl)O5)cc4)CC3)cc2)c1=O (centres unmarked) [Itraconazole]
- percent enzymatic activity, individual values: 81.4131% and 90.2946% and 93.255%
- percent enzymatic activity, AVG: 88.3209%

Structure (SMILES): Cc1cc(CCCOc2c(C)cc(-c3noc(C(F)(F)F)n3)cc2C)on1 [Pleconaril]
- percent enzymatic activity, individual values: 89.2446% and 86.7306% and 85.4737%
- percent enzymatic activity, AVG: 87.1496%

Structure (SMILES): COc1cnc(-n2cnc(C)n2)c2[nH]cc(C(=O)C(=O)N3CCN(C(=O)c4ccccc4)CC3)c12 [Temsavir]
- percent enzymatic activity, individual values: 93.8534% and 98.0433% and 100.976%
- percent enzymatic activity, AVG: 97.6243%

Structure (SMILES): CCN(CCO)CCCC(C)Nc1ccnc2cc(Cl)ccc12 (centres unmarked) [Hydroxychloroquine]
- percent enzymatic activity, individual values (listed as Hydrochloroquine): 83.3868% and 88.8143% and 90.788%
- percent enzymatic activity, AVG: 87.663%

Structure (SMILES): CCOC(=O)c1ccc(OC(=O)CCCCCNC(=N)N)cc1 [Gabexate]
- percent enzymatic activity, individual values: 88.0184% and 104.147% and 90.7834%
- percent enzymatic activity, AVG: 94.3164%

Structure (SMILES): CC(C)c1nc(CN(C)C(=O)N[C@H](C(=O)N[C@@H](Cc2ccccc2)C[C@H](O)[C@H](Cc2ccccc2)NC(=O)OCc2cncs2)C(C)C)cs1 [Ritonavir]
- percent enzymatic activity, individual values: 82.0276% and 87.5576% and 91.2442%
- percent enzymatic activity, AVG: 86.9432%
- inhibitory effect towards 3CLpro enzymatic activity (in words): did not exhibit any 3CLpro inhibitory activity

Structure (SMILES): CCC(CC)[C@H](NC(C)=O)[C@@H]1[C@H](O)[C@@H](C(=O)O)C[C@H]1N=C(N)N [Peramivir]
- percent enzymatic activity, individual values: 99.7193% and 97.2053% and 109.775%
- percent enzymatic activity, AVG: 102.233%

Structure (SMILES): O=C(O)[C@H]1C2CCC(CC2)[C@@H]1Nc1nc(-c2c[nH]c3ncc(F)cc23)ncc1F [Pimodivir]
- percent enzymatic activity, individual values (listed as Pimodvir): 92.1775% and 98.4623% and 116.898%
- percent enzymatic activity, AVG: 102.513%

Structure (SMILES): CC(C)(C)OC(=O)N[C@H]1CCCCC/C=C\[C@@H]2C[C@@]2(C(=O)NS(=O)(=O)C2CC2)NC(=O)[C@@H]2C[C@@H](OC(=O)N3Cc4cccc(F)c4C3)CN2C1=O [Danoprevir]
- percent enzymatic activity, individual values: 70.073% and 72.9927% and 80.6569%
- percent enzymatic activity, AVG: 74.5742%

Structure (SMILES): CCC(CC)COC(=O)[C@H](C)N[P@](=O)(OC[C@H]1O[C@@](C#N)(c2ccc3c(N)ncnn23)[C@H](O)[C@@H]1O)Oc1ccccc1 [Remdesivir]
- percent enzymatic activity, individual values: 83.5766% and 41.9708% and 50.7299%
- percent enzymatic activity, AVG: 58.7591%

Structure (SMILES): CCC[C@@]1(CCc2ccccc2)CC(O)=C([C@H](CC)c2cccc(NS(=O)(=O)c3ccc(C(F)(F)F)cn3)c2)C(=O)O1 [Tipranavir]
- percent enzymatic activity, individual values: 30.4148% and 38.7097% and 37.3272%
- percent enzymatic activity, AVG: 35.4839%
- % activity [2]: 82.4284% (2×) and 99.6504%
- activity at 0.097656 µM [3]: 101%
- % activity [4]: 93.9114% and 73.379% and 92.2647% and 99.6504%
- % activity [5]: 86.3629% and 90.6909% and 88.1724%
- activity at 0.390625 µM [6]: 104%
- % activity [7]: 90.2974% and 88.7236% and 98.607%
- activity at 0.78125 µM [8]: 109%
- % activity [9]: 116.346% and 88.7236% and 94.6254%
- % activity [10]: 93.8385% and 93.4451% and 104.346%
- activity at 3.125 µM [11]: 110%
- % activity (dose-dependent study, 6.25 uM, individual values): 117.389% and 86.7564% and 86.3629%
- % activity [12]: 89.5105% and 88.3302% and 98.0853%
- activity at 12.5 µM [13]: 107%
- % activity [14]: 75.6509% and 84.3957% and 93.4451% and 63.6511%
- % activity [15]: 69.8379% and 61.9688% and 53.2165%
- activity at 50 µM [15]: 57.4%
- % activity [16]: 47.9992% and 60.395% and 69.8379% and 42.7819%
- IC50 (drugs 0 to 100 µM, 50 µM substrate, non-linear four variable fit, read-out: IC50 for SARS-CoV-2 3CL protease): 27.7 µM
- inhibitory effect towards 3CLpro enzymatic activity (in words): partial inhibitory effect
- inhibition at 50 µM [17]: 64%
- inhibition at 100 µM (read-out: inhibition of 3CLpro enzymatic activity, 100 µM drug): 50%

Structure (SMILES): CO[C@@H]1[C@H](OC(=O)/C=C/C=C/C=C/C=C/C(=O)O)CC[C@]2(CO2)[C@H]1[C@@]1(C)O[C@@H]1CC=C(C)C [Fumagillin]
- percent enzymatic activity, individual values: 70.8091% and 76.2559% and 71.647%
- percent enzymatic activity, AVG: 72.904%

Structure (SMILES): Cc1c(O)cccc1C(=O)N[C@@H](CSc1ccccc1)[C@H](O)CN1C[C@H]2CCCC[C@H]2C[C@H]1C(=O)NC(C)(C)C [Nelfinavir]
- percent enzymatic activity, individual values (listed as Nilfinavir): 69.1244% and 72.3502% and 70.0461%
- percent enzymatic activity, AVG: 70.5069%

Structure (SMILES): CCC[C@H](NC(=O)[C@@H]1[C@H]2CCC[C@H]2CN1C(=O)[C@@H](NC(=O)[C@@H](NC(=O)c1cnccn1)C1CCCCC1)C(C)(C)C)C(=O)C(=O)NC1CC1 [Telaprevir]
- percent enzymatic activity, individual values: 64.9635% and 42.7007% and 84.6715%
- percent enzymatic activity, AVG: 64.1119%

Structure (SMILES): CC(C)(C)NC(=O)[C@@H]1C[C@@H]2CCCC[C@@H]2CN1C[C@@H](O)[C@H](Cc1ccccc1)NC(=O)[C@H](CC(N)=O)NC(=O)c1ccc2ccccc2n1 [Saquinavir]
- percent enzymatic activity, individual values: 65.8986% and 67.2811% and 76.0369%
- percent enzymatic activity, AVG: 69.7389%
